The values below come from PMC9738913 (2022).

In the test the test system is d(GC)9 duplex (d(GC)9d(GC)9) (DNA, duplex) GCGCGCGCGCGCGCGCGC
Nature of the test: fluorescence quenching and UV-vis absorption red shift. To be noted: 100 mM NaCl, 50 mM sodium phosphate; PBS pH 7.4, room temperature; 5 μM proflavine, 2.5 μM DNA; intercalation.

In the case of `Nc1ccc2cc3ccc(N)cc3nc2c1`, the binding entry is “yes”.
